{"source": "patent US4268503A", "about": "“Antibacterial composition” (Fujisawa Pharmaceutical Co., Ltd., priority 1979, dated 1981)", "format_in_all_cases": "cell-based", "key": {"Klebsiella pneumoniae 8": {"tested_on": "Klebsiella pneumoniae 8", "assay": "Test 8: synergistic activity in various combination ratios (isobologram, growth)", "parameters": "key: the symbol \"+\" means that the test microorganism grew; the symbol \"-\" means that the test microorganism did not grow", "description": "Into a Nutrient broth (Difco) containing prescribed amounts of monosodium salt of 3-(N-formyl-N-hydroxyamino)-propylphosphonic acid and gentamicin sulfate, was inoculated 0.5% of 10-fold dilution of cultured broth of pathogen which was cultured overnight in Nutrient broth (Eiken). After the incubation was carried out at 37° C. for 18 hours, the growth of the test organism was observed."}, "[1]": {"tested_on": "Serratia marcescens 1421-4", "assay": "Tests 2 and 3: MIC and synergism (FIC) in vitro", "conditions": "14214, S. marcescens 1421-4, Nutrient agar, 10^5 cells/ml, 37° C., 20 hours", "description": "(§1) On a Nutrient agar (Difco) containing prescribed amount of each of monosodium salt of 3-(N-formyl-N-hydroxyamino)propylphosphonic acid, monosodium salt of ampicillin and a mixture of 3-(N-formyl-N-hydroxyamino)propylphosphonic acid and monosodium salt of ampicillin (1:1 by weight), there was streaked a loopful of cultured broth of each pathogen, which was cultured overnight in Nutrient broth (Difco), in a concentration of 10^5 cells/ml. After the incubation was carried out at 37° C. for 20 hours, MIC values were determined.\n(§2) FIC values and FIC Index were calculated in substantially the same manner as described in Test 1.\n(§3) Synergistic activity of 3-(N-formyl-N-hydroxyamino)propylphosphonic acid and cefazolin; that of 3-(N-formyl-N-hydroxyamino)propylphosphonic acid and ticarcillin; and that of 3-(N-formyl-N-hydroxyamino)propylphosphonic acid and nocardicin A were tested in vitro in substantially the same manner as described in the above Test 2."}, "[2]": {"tested_on": "Klebsiella pneumoniae NCTC 418", "assay": "Tests 2 and 3: MIC and synergism (FIC) in vitro", "conditions": "NCTC418, 20 h", "description": "as §1, §2, §3"}, "[3]": {"tested_on": "Salmonella typhimurium 1406", "assay": "Tests 2 and 3: MIC and synergism (FIC) in vitro", "conditions": "Salmonella enterica, 20 h", "description": "as §1, §2, §3"}, "[4]": {"tested_on": "Staphylococcus epidermidis 1601-1", "assay": "Tests 2 and 3: MIC and synergism (FIC) in vitro", "conditions": "16011, S. epidermidis 1601-1, Nutrient agar, 10^5 cells/ml, 37° C., 20 hours", "description": "as §1, §2, §3"}, "[5]": {"tested_on": "Enterobacter cloacae 1401-4", "assay": "Tests 2 and 3: MIC and synergism (FIC) in vitro", "conditions": "14014, E. cloacae 1401-4, Nutrient agar, 10^5 cells/ml, 37° C., 20 hours", "description": "as §1, §2, §3"}, "[6]": {"tested_on": "Proteus mirabilis 1432-75", "assay": "Tests 2 and 3: MIC and synergism (FIC) in vitro", "conditions": "Proteus mirabilis, 143275, 20 h", "description": "as §1, §2, §3"}}, "data": [{"compound": "O=CN(O)CCCP(=O)(O)O", "note": "[3-(N-formyl-N-hydroxyamino)propylphosphonic acid]", "values": [{"measurement": "growth of test microorganism", "setting": "Klebsiella pneumoniae 8; gentamicin sulfate 0, phosphonic acid 0.78 mcg/ml, 37° C., 18 hours", "result": "+"}, {"measurement": "growth of test microorganism", "setting": "Klebsiella pneumoniae 8; gentamicin sulfate 0, phosphonic acid 1.56 mcg/ml", "result": "+"}, {"measurement": "growth of test microorganism", "setting": "Klebsiella pneumoniae 8; gentamicin sulfate 0, phosphonic acid 3.13 mcg/ml", "result": "+"}, {"measurement": "growth of test microorganism", "setting": "Klebsiella pneumoniae 8; gentamicin sulfate 0, phosphonic acid 6.25 mcg/ml", "result": "+"}, {"measurement": "growth of test microorganism", "setting": "Klebsiella pneumoniae 8; gentamicin sulfate 0, phosphonic acid 12.5 mcg/ml", "result": "+"}, {"measurement": "growth of test microorganism", "setting": "Klebsiella pneumoniae 8; gentamicin sulfate 0, phosphonic acid 25 mcg/ml", "result": "-"}]}, {"compound": "CC1(C)S[C@@H]2[C@H](NC(=O)[C@H](C(=O)O)c3ccsc3)C(=O)N2[C@H]1C(=O)O", "note": "[ticarcillin]", "values": [{"measurement": "MIC", "setting": "[1]", "result": 25, "unit": "µg/mL"}, {"measurement": "MIC", "setting": "[2]", "result": 100, "unit": "µg/mL"}, {"measurement": "MIC", "setting": "[3]", "result": 1.56, "unit": "µg/mL"}, {"measurement": "MIC", "setting": "[4]", "result": 3.13, "unit": "µg/mL"}, {"measurement": "MIC", "setting": "[5]", "result": 50, "unit": "µg/mL"}, {"measurement": "MIC", "setting": "[6]", "result": 0.78, "unit": "µg/mL"}]}, {"compound": "gentamicin", "values": [{"measurement": "growth of test microorganism", "setting": "Klebsiella pneumoniae 8; gentamicin sulfate 0.001, phosphonic acid 0 mcg/ml", "result": "+"}, {"measurement": "growth of test microorganism", "setting": "Klebsiella pneumoniae 8; gentamicin sulfate 0.003, phosphonic acid 0 mcg/ml", "result": "+"}, {"measurement": "growth of test microorganism", "setting": "Klebsiella pneumoniae 8; gentamicin sulfate 0.006, phosphonic acid 0 mcg/ml", "result": "+"}, {"measurement": "growth of test microorganism", "setting": "Klebsiella pneumoniae 8; gentamicin sulfate 0.01, phosphonic acid 0 mcg/ml", "result": "+"}, {"measurement": "growth of test microorganism", "setting": "Klebsiella pneumoniae 8; gentamicin sulfate 0.025, phosphonic acid 0 mcg/ml", "result": "+"}, {"measurement": "growth of test microorganism", "setting": "Klebsiella pneumoniae 8; gentamicin sulfate 0.05, phosphonic acid 0 mcg/ml", "result": "-"}]}]}
